According to patent publication US20110288086A1, “POLYCYCLIC QUINAZOLINES, PREPARATION THEREOF, AND USE THEREOF” (priority 2010, published 2011):
Converted amounts (≈) assume the structure as drawn. Structures can show the parent of a compound that is named as a salt.

Key:
[1] = tested on: K562 human chronicity marrow leukemic cells; test: Tumor cell IC50, CCK-8 kit, K562; type: cell-based
Text: (§1) The inhibitory activities of the compounds on tumor cells (IC50) in vitro
(§2) The IC50 (IC50, unit: μg/ml) values of the compounds on Hut78 T-Lymphocytic Leukemia cells, Jurkat E6-1 human T-cell lymphoma, PANC-1 human pancreatic cancer cells, A549 human lung cancer cells, K562 human chronicity marrow leukemic cells, Hep3B2. 1-7 human hepatoma carcinoma cells, MDA-MB-435s human breast carcinoma cells, Colo320 human rectal cancer cells, PC-3 human carcinoma of prostate, and HepG2 human hepatoma carcinoma cells were determined using a CCK-8 kit. Erlotinib hydrochloride was used as the positive control drug.

[2] = tested on: Hep3B2.1-7 human hepatoma carcinoma cells; test: Tumor cell inhibition ratio, CCK-8 kit, Hep3B; conditions: read-out: Antiproliferative effect (inhibition ratio) Hep3B
Text: (§3) The inhibitory activities of the compounds on tumor cells in vitro

[3] = tested on: MDA-MB-435s human breast carcinoma cells; test: Tumor cell inhibition ratio, CCK-8 kit, MDA-MB-435s; conditions: read-out: Antiproliferative effect (inhibition ratio) 435s
Text: as §3

[4] = tested on: A549 human lung cancer cells; test: Tumor cell inhibition ratio, CCK-8 kit, A549; conditions: A549, read-out: Antiproliferative effect (inhibition ratio) A549
Text: as §3

[5] = tested on: PC-3 human carcinoma of prostate; test: Tumor cell inhibition ratio, CCK-8 kit, PC-3; conditions: read-out: Antiproliferative effect (inhibition ratio) PC-3
Text: as §3

[6] = target: EGFR tyrosine kinase (Homo sapiens, UniProt P00533); test: EGFR tyrosine kinase inhibition in vitro (Invitrogen EGFR inhibitor screening kit PV3193)
Sequence of EGFR tyrosine kinase (P00533 25-1210): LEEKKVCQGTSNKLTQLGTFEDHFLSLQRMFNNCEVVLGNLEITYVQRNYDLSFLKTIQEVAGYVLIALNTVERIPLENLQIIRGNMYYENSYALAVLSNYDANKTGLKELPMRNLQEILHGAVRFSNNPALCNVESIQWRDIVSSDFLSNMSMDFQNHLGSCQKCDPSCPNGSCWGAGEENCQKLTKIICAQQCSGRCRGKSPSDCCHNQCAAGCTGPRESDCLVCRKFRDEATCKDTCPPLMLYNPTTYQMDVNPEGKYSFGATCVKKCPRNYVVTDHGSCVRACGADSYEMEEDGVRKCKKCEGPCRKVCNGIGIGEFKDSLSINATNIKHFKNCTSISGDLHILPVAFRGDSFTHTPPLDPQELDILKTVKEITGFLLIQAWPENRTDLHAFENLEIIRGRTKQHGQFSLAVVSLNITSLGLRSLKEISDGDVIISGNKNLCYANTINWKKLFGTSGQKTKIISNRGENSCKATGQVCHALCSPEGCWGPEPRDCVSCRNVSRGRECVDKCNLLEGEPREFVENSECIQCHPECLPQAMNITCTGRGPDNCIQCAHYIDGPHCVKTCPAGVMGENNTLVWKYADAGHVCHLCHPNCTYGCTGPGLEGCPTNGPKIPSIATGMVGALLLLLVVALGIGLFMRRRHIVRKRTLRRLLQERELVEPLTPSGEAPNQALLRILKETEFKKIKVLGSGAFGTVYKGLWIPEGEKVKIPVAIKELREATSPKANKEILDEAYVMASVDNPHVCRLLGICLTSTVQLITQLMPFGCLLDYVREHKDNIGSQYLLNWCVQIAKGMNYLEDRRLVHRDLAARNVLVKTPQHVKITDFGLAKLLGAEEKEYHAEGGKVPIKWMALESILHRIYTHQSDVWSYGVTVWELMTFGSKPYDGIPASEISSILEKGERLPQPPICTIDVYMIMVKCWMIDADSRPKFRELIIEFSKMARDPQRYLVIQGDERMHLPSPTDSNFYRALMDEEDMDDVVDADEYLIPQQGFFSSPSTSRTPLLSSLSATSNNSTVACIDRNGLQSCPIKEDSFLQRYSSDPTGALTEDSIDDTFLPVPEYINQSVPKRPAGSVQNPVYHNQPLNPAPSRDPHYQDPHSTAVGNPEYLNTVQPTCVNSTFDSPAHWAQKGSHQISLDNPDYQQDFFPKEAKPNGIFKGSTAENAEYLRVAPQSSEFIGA
Text: The inhibitory activities of EGFR tyrosine kinase in vitro
Erlotinib hydrochloride was used as a positive control drug.

[7] = tested on: A549 human lung cancer cells; test: Tumor cell IC50, CCK-8 kit, A549; type: cell-based
Text: as §1, §2

[8] = tested on: PC-3 human carcinoma of prostate; test: Tumor cell IC50, CCK-8 kit, PC-3; type: cell-based; conditions: PC-3 cells
Text: as §1, §2

[9] = tested on: Colo320 human rectal cancer cells; test: Tumor cell IC50, CCK-8 kit, Colo320; type: cell-based; conditions: COLO 320
Text: as §1, §2

[10] = tested on: Jurkat E6-1 human T-cell lymphoma; test: Tumor cell IC50, CCK-8 kit, Jurkat E6-1; type: cell-based; conditions: E6-1 cells
Text: as §1, §2

[11] = tested on: MDA-MB-435s human breast carcinoma cells; test: Tumor cell IC50, CCK-8 kit, MDA-MB-435s; type: cell-based; conditions: 435s cells
Text: as §1, §2

[12] = tested on: Colo320 human rectal cancer cells; test: Tumor cell inhibition ratio, CCK-8 kit, Colo320; conditions: COLO 320, read-out: Antiproliferative effect (inhibition ratio) Colo320
Text: as §3

[13] = tested on: PANC-1 human pancreatic cancer cells; test: Tumor cell IC50, CCK-8 kit, PANC-1; type: cell-based; conditions: PANC-1 cells
Text: as §1, §2

[14] = tested on: Jurkat E6-1 human T-cell lymphoma; test: Tumor cell inhibition ratio, CCK-8 kit, Jurkat E6-1; conditions: Jurkat E6.1, read-out: Antiproliferative effect (inhibition ratio) E6-1
Text: as §3

[15] = tested on: Hut78 T-Lymphocytic Leukemia cells; test: Tumor cell inhibition ratio, CCK-8 kit, Hut78; conditions: Homo sapiens, HuT78, read-out: Antiproliferative effect (inhibition ratio) Hut-78
Text: as §3

[16] = tested on: K562 human chronicity marrow leukemic cells; test: Tumor cell inhibition ratio, CCK-8 kit, K562; conditions: K562, read-out: Antiproliferative effect (inhibition ratio) K562
Text: as §3

[17] = tested on: Hep3B2. 1-7 human hepatoma carcinoma cells; test: Tumor cell IC50, CCK-8 kit, Hep3B; type: cell-based
Text: as §1, §2

[18] = tested on: Hut78 T-Lymphocytic Leukemia cells; test: Tumor cell IC50, CCK-8 kit, Hut78; type: cell-based; conditions: Homo sapiens, Hut-78 cells
Text: as §1, §2

[19] = tested on: PANC-1 human pancreatic cancer cells; test: Tumor cell inhibition ratio, CCK-8 kit, PANC-1; conditions: PANC-1, read-out: Antiproliferative effect (inhibition ratio) PANC-1
Text: as §3

[20] = target: T1, aurora kinase B (Homo sapiens, UniProt Q96GD4); test: Aurora kinase B inhibition in vitro (Invitrogen aurora kinase screening kit PV3174); type: biochemical
T1 construct: purchased Invitrogen PV3174
T1 sequence (Q96GD4 whole entry): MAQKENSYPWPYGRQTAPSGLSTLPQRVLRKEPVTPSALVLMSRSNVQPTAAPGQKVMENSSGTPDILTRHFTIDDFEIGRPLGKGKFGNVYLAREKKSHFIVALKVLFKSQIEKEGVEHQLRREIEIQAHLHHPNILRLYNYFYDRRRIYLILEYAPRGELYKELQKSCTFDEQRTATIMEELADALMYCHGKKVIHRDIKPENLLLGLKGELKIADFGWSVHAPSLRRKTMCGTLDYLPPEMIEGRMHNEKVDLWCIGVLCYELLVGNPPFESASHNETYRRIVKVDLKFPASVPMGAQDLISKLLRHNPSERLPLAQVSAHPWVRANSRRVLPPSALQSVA

The inhibition ratio of the compound on EGFR(%) ([6]; 40 μM)	The inhibition ratio of the compound on EGFR(%) ([6]; 200 μM)	The inhibition ratio of the compound on Aurora B(%) ([20]; 40 μM)	Compound	inhibition at 10 µM [2]	inhibition at 100 µM [2]	inhibition at 10 µM [3]	inhibition at 100 µM [3]	inhibition at 10 µM [4]	inhibition at 100 µM [4]	inhibition at 10 µM [5]	inhibition at 100 µM [5]	inhibition at 10 µM [12]	inhibition at 10 µM [14]	inhibition at 100 µM [14]	inhibition at 10 µM [15]	inhibition at 100 µM [15]	inhibition at 10 µM [16]	inhibition at 100 µM [16]	inhibition at 10 µM [19]	inhibition at 100 µM [19]	further results
55.2%	93.8%	48.5%	Br.COCCOc1cc2c(cc1OCCOC)C1=Nc3cccc(N)c3CN1C=N2 [Compound V-6, 9-amino-2,3-bis(2-methoxyethoxy)-8H-quinazolino[4,3-b]quinazoline hydrobromide trihydrate]	51.3%	84.7%	50.4%	87%	63%	97.3%	53.4%	84.4%	73.5%	61.1%	95.3%	69%	91.9%	64.1%	82.8%	64.2%	98.6%	IC50 [1]: 46.4 µg/mL; IC50 [7]: 3.68 µg/mL; IC50 [8]: 33 µg/mL; IC50 [9]: 29.8 µg/mL; IC50 [10]: 30.5 µg/mL; IC50 [11]: 33.5 µg/mL; inhibition at 100 µM [12]: 99.2%; IC50 [13]: 16.8 µg/mL; IC50 [17]: 15.6 µg/mL; IC50 [18]: 58.8 µg/mL; The inhibition ratio of the compound on Aurora B(%) ([20]; 200 μM): 93.8%
52.3%	95.6%	32.3%	COCCOc1cc2c(cc1OCCOC)C1=Nc3cccc(O)c3CN1C=N2 [Compound V-8, 9-hydroxy-2,3-bis(2-methoxyethoxy)-8H-quinazolino[4,3-b]quinazoline]	52.4%	87.3%	55%	93.7%	52.8%	80%	45.2%	94%	64.5%	44%	85.4%	35.6%	75.9%	52.4%	92.2%	41.5%	89.8%	IC50 [1]: 63.1 µg/mL (≈ 159 µM); IC50 [7]: 30 µg/mL (≈ 75.5 µM); IC50 [8]: 9.9 µg/mL (≈ 24.9 µM); IC50 [9]: 29.8 µg/mL (≈ 74.9 µM); IC50 [10]: 8.11 µg/mL (≈ 20.4 µM); IC50 [11]: 27.6 µg/mL (≈ 69.5 µM); inhibition at 100 µM [12]: 94.8%; IC50 [13]: 21.2 µg/mL (≈ 53.3 µM); IC50 [17]: 33.1 µg/mL (≈ 83.4 µM); IC50 [18]: 53.1 µg/mL (≈ 134 µM); The inhibition ratio of the compound on Aurora B(%) ([20]; 200 μM): 96.4%
56.4%	85.6%	53.5%	COCCOc1cc2c(cc1OCCOC)C1=Nc3cccc(NC(C)=O)c3CN1C=N2 [Compound V-11, N-{2,3-bis(2-methoxyethoxy)-8H-quinazolino[4,3-b]quinazoline}acetamide]	57.1%	82.8%	41%	89.5%	63.1%	99.2%	55.1%	89.7%	41.6%	41.6%	90.8%	31%	72.8%	50.5%	86%	57.9%	91.3%	IC50 [1]: 40.6 µg/mL (≈ 92.6 µM); IC50 [7]: 4.64 µg/mL (≈ 10.6 µM); IC50 [8]: 36.8 µg/mL (≈ 83.9 µM); IC50 [9]: 34.6 µg/mL (≈ 78.8 µM); IC50 [10]: 39.9 µg/mL (≈ 90.9 µM); IC50 [11]: 6.79 µg/mL (≈ 15.5 µM); inhibition at 100 µM [12]: 96.3%; IC50 [13]: 6.72 µg/mL (≈ 15.3 µM); IC50 [17]: 26.1 µg/mL (≈ 59.5 µM); IC50 [18]: 26.8 µg/mL (≈ 61.1 µM); The inhibition ratio of the compound on Aurora B(%) ([20]; 200 μM): 96.7%
45.7%	88.9%	55.2%	COCCOc1cc2c(cc1OCCOC)C1=Nc3ccc(F)c(Cl)c3CN1C=N2 [Compound V-13, 9-chloro-10-fluoro-2,3-bis(2-methoxyethoxy)-8H-quinazolino[4,3-b]quinazoline]	64.7%	102%	26.8%	67.9%	43%	91.1%	61.4%	87.7%	59.7%	52.6%	98%	66.2%	101%	66.2%	98.5%	45.9%	87.2%	IC50 [1]: 11 µg/mL (≈ 25.3 µM); IC50 [7]: 10.7 µg/mL (≈ 24.7 µM); IC50 [8]: 9.78 µg/mL (≈ 22.5 µM); IC50 [9]: 9.88 µg/mL (≈ 22.8 µM); IC50 [10]: 3.89 µg/mL (≈ 8.97 µM); IC50 [11]: 31.4 µg/mL (≈ 72.4 µM); IC50 [13]: 14.9 µg/mL (≈ 34.3 µM); IC50 [17]: 0.32 µg/mL (≈ 0.738 µM); IC50 [18]: 0.62 µg/mL (≈ 1.43 µM); The inhibition ratio of the compound on Aurora B(%) ([20]; 200 μM): 95.8%

The next lines start with the compound.

Compound	The inhibition ratio of the compound on EGFR(%) ([6]; 40 μM)	The inhibition ratio of the compound on EGFR(%) ([6]; 200 μM)	The inhibition ratio of the compound on Aurora B(%) ([20]; 40 μM)	inhibition at 10 µM [2]	inhibition at 100 µM [2]	inhibition at 10 µM [3]	inhibition at 100 µM [3]	inhibition at 10 µM [4]	inhibition at 100 µM [4]	inhibition at 10 µM [5]	inhibition at 100 µM [5]	inhibition at 10 µM [12]	inhibition at 10 µM [14]	inhibition at 100 µM [14]	inhibition at 10 µM [15]	inhibition at 100 µM [15]	inhibition at 10 µM [16]	inhibition at 100 µM [16]	inhibition at 10 µM [19]	inhibition at 100 µM [19]	further results
COCCOc1cc2c(cc1OCCOC)C1=Nc3cc(O)ccc3CN1C=N2 [Compound V-18, 11-hydroxy-2,3-bis(2-methoxyethoxy)-8H-quinazolino[4,3-b]quinazoline]	33.2%	78.8%	23.2%	40.1%	77.5%	36.6%	72.3%	37.8%	78.6%	37%	76.2%	38.1%	44.1%	84%	19.7%	65.2%	10.4%	59%	30%	84.4%	inhibition at 100 µM [12]: 75.1%; The inhibition ratio of the compound on Aurora B(%) ([20]; 200 μM): 76.9%
C#Cc1cccc2c1CN1C=Nc3cc(OC)c(OC)cc3C1=N2 [Compound V-31, 9-ethynyl-2,3-dimethoxy-8H-quinazolino[4,3-b]quinazoline]	30.6%	76.5%	10.6%	31.9%	62.2%	50.6%	85.1%	28.8%	32.8%	29.4%	81.7%	30.8%	21.8%	84.2%	41.1%	72.2%	37.5%	85%	46.5%	96.4%	inhibition at 100 µM [12]: 92.8%; The inhibition ratio of the compound on Aurora B(%) ([20]; 200 μM): 66.5%
C#Cc1cccc(Nc2ncnc3cc(OCCOC)c(OCCOC)cc23)c1 [Erlotinib hydrochloride, reference compound]	–	–	–	–	–	–	–	–	–	–	–	–	–	–	–	–	–	–	–	–	IC50 [1]: 39.9 µg/mL; IC50 [7]: 19.3 µg/mL; IC50 [8]: 54.2 µg/mL; IC50 [9]: 40.4 µg/mL; IC50 [10]: 35.6 µg/mL; IC50 [11]: 13.1 µg/mL; IC50 [13]: 32.5 µg/mL; IC50 [17]: 62.3 µg/mL; IC50 [18]: 43.2 µg/mL
